Test results reported in ChEMBL document CHEMBL3421625, “Discovery and optimization of novel antagonists to the human neurokinin-3 receptor for the treatment of sex-hormone disorders (Part I)” (J Med Chem, 2015).
Converted amounts (≈) assume the structure as drawn.

Tests used:
[1] = target: Cytochrome P450 2C19 (Homo sapiens, UniProt P33261); assay: Inhibition of CYP2C19 (unknown origin) by luciferase reporter assay in presence of NADPH regeneration system
[2] = target: T1, Cytochrome P450 1A2 (Homo sapiens, UniProt P05177); assay: Inhibition of CYP1A2 (unknown origin) by luciferase reporter assay in presence of NADPH regeneration system; type: ADME
T1 sequence (P05177 whole entry): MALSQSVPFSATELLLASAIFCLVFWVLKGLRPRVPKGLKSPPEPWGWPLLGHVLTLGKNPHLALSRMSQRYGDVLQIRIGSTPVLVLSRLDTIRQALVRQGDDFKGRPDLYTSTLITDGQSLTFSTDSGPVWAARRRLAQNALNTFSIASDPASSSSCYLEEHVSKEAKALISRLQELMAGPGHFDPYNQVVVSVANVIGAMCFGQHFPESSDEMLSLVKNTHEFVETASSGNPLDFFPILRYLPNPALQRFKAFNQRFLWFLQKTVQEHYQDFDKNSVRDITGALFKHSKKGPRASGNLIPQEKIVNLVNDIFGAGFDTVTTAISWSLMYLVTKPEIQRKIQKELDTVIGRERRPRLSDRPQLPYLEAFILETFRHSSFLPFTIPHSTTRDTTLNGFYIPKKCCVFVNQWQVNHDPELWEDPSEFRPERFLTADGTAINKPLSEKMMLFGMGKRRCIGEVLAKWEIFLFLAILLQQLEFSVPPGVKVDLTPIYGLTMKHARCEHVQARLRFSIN

[3] = target: Cytochrome P450 2D6 (Homo sapiens, UniProt P10635); assay: Inhibition of CYP2D6 (unknown origin) by luciferase reporter assay in presence of NADPH regeneration system; type: ADME
[4] = Lipophilicity, log D of the compound at pH 7.4; type: physicochemical; details: buffer, read-out: logD
[5] = target: T2, Neuromedin-K receptor (Homo sapiens, UniProt P29371); assay: biochemical
T2 sequence (P29371 whole entry): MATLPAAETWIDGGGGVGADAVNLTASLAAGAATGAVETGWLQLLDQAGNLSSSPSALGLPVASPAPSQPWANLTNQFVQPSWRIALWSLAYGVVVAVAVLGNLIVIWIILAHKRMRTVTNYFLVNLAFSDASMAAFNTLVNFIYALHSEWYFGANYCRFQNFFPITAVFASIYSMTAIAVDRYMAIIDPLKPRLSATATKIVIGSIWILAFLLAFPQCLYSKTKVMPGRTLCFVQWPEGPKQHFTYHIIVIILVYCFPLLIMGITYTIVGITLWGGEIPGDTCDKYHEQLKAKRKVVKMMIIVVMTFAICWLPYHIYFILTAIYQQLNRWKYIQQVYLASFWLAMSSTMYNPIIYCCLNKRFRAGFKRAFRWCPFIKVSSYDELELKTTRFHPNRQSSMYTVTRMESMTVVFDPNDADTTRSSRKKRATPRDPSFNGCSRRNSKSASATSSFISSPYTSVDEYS
Description: Displacement of [3H]-SB222200 from recombinant human NK3R expressed in CHO cell membranes after 90 mins by scintillation counting analysis

[6] = Half life in rat liver microsomes; type: ADME
[7] = target: Cytochrome P450 2C9 (Homo sapiens, UniProt P11712); assay: Inhibition of CYP2C9 (unknown origin) by luciferase reporter assay in presence of NADPH regeneration system; type: ADME
[8] = Solubility of the compound in PBS buffer at pH 7.4 by shake-flask method; type: physicochemical
[9] = target: T2, Neuromedin-K receptor
[10] = target: Voltage-gated inwardly rectifying potassium channel KCNH2 (Homo sapiens, UniProt Q12809)
Description: Inhibition of human ERG expressed in HEK293 cells after 5 mins by patch-clamp assay

[11] = target: Cytochrome P450 3A4 (Homo sapiens, UniProt P08684); assay: Inhibition of CYP3A4 (unknown origin) by luciferase reporter assay in presence of NADPH regeneration system; type: ADME
[12] = target: T3, Substance-K receptor (Homo sapiens, UniProt P21452); assay: Displacement of [125I]NKA from human NK2R expressed in CHO cell membranes after 90 mins by scintillation counting analysis
T3 sequence (P21452 whole entry): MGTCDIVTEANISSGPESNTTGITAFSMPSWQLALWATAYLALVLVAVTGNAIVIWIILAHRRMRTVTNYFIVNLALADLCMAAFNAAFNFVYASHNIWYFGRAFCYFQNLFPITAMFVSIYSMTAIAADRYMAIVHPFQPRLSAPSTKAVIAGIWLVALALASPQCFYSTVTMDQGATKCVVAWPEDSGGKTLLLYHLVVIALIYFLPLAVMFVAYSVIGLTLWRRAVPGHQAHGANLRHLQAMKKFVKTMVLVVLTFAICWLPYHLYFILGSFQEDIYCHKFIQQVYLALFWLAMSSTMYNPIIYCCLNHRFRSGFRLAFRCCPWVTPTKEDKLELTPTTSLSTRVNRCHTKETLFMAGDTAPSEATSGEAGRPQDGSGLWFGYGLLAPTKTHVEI

[13] = tested on: Rattus norvegicus; assay: Unbound AUC in Sprague-Dawley rat at 1 mg/kg, iv by LC-MS/MS analysis; type: ADME, organism-based; design: dose 1 mg/kg, route intravenous; details: in vivo
[14] = target: T4, NK-3 receptor (Macaca mulatta, UniProt Q2WGM0)
T4 sequence (Q2WGM0 whole entry): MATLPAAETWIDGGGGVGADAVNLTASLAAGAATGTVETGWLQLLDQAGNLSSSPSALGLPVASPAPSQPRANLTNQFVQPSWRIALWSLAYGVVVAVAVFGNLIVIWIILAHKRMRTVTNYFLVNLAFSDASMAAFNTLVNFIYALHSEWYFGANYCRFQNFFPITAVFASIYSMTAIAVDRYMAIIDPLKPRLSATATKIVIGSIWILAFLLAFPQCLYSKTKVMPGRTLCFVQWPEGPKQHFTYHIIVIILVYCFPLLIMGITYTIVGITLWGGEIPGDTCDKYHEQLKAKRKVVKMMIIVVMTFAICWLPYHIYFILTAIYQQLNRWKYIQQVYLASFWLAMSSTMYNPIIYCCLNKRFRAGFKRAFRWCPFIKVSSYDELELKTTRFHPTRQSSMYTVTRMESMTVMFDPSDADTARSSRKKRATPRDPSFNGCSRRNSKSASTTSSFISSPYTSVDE
Description: Displacement of [3H]-SB222200 from monkey NK3R after 90 mins by scintillation counting analysis

[15] = Total systemic clearance in Sprague-Dawley rat at 1 mg/kg, iv by LC-MS/MS analysis; type: ADME, organism-based; design: dose 1 mg/kg, route intravenous; details: in vivo
[16] = Ratio of unbound drug level in brain to plasma in Sprague-Dawley rat at 1 mg/kg, iv measured at 60 mins; details: brain and plasma
[17] = in vivo; details: Sprague-Dawley, rat, iv, 1 mg/kg
[18] = in vivo; details: Sprague-Dawley, rat, iv, 1 mg/kg; remark: listed apart in the source
Description: Volume of distribution at steady state in Sprague-Dawley rat at 1 mg/kg, iv by LC-MS/MS analysis

[19] = in vivo; details: Sprague-Dawley, rat, po, 3 mg/kg
[20] = target: Kappa-type opioid receptor (Homo sapiens) (UniProt P41145); assay: Inhibition of KOR (unknown origin) at 10 uM relative to control
[21] = target: T5, Neuromedin-K receptor (Rattus norvegicus, UniProt P16177)
T5 sequence (P16177 whole entry): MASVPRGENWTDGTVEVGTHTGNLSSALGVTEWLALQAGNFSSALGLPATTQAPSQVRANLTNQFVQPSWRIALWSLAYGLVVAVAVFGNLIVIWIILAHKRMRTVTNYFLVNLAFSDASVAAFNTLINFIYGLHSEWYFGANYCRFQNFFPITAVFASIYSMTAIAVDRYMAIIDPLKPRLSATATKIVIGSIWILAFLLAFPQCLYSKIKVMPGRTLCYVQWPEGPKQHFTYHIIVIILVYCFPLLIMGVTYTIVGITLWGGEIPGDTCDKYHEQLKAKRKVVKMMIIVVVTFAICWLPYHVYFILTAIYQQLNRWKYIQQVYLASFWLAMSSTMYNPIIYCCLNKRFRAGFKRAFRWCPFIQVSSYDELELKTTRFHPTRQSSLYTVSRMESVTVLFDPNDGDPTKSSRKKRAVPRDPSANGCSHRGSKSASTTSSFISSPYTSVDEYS
Description: Displacement of [3H]-SB222200 from rat NK3R after 90 mins by scintillation counting analysis

[22] = Apparent permeability across basolateral to apical side in human Caco2 cells in presence of 0.1% bovine serum albumin; details: Caco-2
[23] = tested on: Rattus norvegicus; assay: Unbound Cmax in Sprague-Dawley rat at 3 mg/kg, po by LC-MS/MS analysis; type: ADME, organism-based; design: dose 3 mg/kg, route oral; details: in vivo
[24] = Fraction unbound in rat plasma at 5 uM after 4 hrs by equilibrium dialysis method; type: ADME, cell-free
[25] = in vivo; details: Sprague-Dawley, rat, po, 3 mg/kg; remark: listed apart in the source
[26] = tested on: Rattus norvegicus; assay: Unbound AUC in Sprague-Dawley rat at 3 mg/kg, po by LC-MS/MS analysis; type: ADME, organism-based; design: dose 3 mg/kg, route oral; details: in vivo
[27] = Fraction unbound in rat brain at 5 uM after 4 hrs by equilibrium dialysis method; type: ADME, tissue-based
[28] = Ratio of unbound drug level in brain to plasma in Sprague-Dawley rat at 1 mg/kg, iv measured at 10 mins; details: brain and plasma
[29] = Apparent permeability across apical to basolateral side in human Caco2 cells in presence of 0.1% bovine serum albumin; details: Caco-2
[30] = target: T3, Substance-K receptor; assay: Displacement of [125I]-neurokinin A from human NK2R after 90 mins by scintillation counting analysis
[31] = target: Substance-P receptor (Homo sapiens, UniProt P25103)
Description: Displacement of [3H]-Substance P from human NK1R after 90 mins by scintillation counting analysis

[32] = target: T6, Gonadotropin-releasing hormone receptor (Homo sapiens) (UniProt P30968); assay: Inhibition of GnRH-R (unknown origin) at 10 uM relative to control
T6 sequence (whole entry): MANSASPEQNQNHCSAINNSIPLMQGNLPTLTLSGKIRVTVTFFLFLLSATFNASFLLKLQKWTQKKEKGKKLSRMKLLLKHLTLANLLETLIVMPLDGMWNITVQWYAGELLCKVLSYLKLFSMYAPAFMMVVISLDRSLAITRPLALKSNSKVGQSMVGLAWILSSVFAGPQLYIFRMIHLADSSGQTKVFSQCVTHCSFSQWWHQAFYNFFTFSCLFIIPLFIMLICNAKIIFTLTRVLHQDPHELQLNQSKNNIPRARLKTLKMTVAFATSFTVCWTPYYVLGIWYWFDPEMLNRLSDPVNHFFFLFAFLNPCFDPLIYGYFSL

[33] = target: Neuropeptide FF receptor 1 (Homo sapiens) (UniProt Q9GZQ6); assay: Inhibition of NPFF1 (unknown origin) at 10 uM relative to control
Chain of Neuropeptide FF receptor 1 (Homo sapiens) (Q9GZQ6 whole entry): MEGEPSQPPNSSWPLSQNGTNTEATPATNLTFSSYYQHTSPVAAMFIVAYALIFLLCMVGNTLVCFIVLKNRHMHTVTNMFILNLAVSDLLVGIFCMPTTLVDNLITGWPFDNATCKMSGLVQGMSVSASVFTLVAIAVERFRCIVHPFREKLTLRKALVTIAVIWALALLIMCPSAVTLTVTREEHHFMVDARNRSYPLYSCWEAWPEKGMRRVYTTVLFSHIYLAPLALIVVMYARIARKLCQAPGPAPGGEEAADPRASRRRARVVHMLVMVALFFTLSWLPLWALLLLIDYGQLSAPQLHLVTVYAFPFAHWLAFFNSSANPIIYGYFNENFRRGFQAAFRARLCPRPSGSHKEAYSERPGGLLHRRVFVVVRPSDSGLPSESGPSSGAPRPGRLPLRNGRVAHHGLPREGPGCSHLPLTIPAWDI

Chain of Cytochrome P450 2D6 (P10635 whole entry): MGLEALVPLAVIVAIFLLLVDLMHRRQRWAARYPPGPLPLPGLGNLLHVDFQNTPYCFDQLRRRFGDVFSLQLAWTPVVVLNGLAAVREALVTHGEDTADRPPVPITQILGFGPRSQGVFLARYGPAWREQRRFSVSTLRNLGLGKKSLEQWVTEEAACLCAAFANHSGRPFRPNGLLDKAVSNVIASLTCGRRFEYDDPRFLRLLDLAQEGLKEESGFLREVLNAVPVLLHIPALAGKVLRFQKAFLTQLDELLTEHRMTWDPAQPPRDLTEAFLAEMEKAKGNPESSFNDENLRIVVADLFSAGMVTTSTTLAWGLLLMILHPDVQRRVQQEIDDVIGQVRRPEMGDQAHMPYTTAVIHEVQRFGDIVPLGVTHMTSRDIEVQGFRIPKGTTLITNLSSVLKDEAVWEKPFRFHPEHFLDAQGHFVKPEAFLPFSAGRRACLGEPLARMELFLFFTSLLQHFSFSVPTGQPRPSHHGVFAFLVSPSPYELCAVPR
Chain of Kappa-type opioid receptor (Homo sapiens) (P41145 whole entry): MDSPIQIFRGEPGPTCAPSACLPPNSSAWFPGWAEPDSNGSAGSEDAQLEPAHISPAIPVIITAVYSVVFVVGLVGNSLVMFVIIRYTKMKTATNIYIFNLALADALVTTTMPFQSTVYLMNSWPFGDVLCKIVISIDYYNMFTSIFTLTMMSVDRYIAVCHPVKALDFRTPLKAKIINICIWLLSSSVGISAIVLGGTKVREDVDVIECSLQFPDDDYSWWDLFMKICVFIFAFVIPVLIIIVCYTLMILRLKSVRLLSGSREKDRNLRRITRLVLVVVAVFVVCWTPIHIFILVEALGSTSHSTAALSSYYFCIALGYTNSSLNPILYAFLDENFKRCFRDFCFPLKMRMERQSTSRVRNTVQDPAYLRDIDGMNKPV
Chain of Cytochrome P450 2C19 (P33261 whole entry): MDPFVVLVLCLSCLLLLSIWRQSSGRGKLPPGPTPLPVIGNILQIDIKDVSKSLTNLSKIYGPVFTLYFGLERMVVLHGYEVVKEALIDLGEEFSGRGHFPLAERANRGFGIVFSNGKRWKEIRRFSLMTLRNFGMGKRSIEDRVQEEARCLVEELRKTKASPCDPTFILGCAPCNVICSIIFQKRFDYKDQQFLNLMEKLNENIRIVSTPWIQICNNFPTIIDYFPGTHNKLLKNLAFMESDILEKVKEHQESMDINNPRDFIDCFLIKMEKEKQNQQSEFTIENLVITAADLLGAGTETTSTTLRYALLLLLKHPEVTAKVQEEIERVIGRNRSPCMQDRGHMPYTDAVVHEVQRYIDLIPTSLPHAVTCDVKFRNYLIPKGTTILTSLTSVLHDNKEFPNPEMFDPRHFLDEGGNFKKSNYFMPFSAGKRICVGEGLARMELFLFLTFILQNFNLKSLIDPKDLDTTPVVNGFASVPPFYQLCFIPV
Chain of Cytochrome P450 2C9 (P11712 whole entry): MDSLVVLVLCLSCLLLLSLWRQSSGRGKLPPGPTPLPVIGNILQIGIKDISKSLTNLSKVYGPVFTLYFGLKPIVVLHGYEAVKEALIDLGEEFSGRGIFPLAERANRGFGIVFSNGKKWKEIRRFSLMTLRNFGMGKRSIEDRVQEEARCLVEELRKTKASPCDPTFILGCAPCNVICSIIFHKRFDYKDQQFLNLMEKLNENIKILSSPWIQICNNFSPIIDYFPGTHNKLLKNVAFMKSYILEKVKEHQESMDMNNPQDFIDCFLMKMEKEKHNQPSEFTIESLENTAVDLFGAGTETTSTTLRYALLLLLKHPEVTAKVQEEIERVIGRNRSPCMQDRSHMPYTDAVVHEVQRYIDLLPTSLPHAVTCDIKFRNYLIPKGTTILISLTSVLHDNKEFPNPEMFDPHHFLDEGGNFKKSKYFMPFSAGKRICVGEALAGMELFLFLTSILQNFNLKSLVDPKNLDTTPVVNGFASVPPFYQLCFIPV
Chain of Cytochrome P450 3A4 (P08684 whole entry): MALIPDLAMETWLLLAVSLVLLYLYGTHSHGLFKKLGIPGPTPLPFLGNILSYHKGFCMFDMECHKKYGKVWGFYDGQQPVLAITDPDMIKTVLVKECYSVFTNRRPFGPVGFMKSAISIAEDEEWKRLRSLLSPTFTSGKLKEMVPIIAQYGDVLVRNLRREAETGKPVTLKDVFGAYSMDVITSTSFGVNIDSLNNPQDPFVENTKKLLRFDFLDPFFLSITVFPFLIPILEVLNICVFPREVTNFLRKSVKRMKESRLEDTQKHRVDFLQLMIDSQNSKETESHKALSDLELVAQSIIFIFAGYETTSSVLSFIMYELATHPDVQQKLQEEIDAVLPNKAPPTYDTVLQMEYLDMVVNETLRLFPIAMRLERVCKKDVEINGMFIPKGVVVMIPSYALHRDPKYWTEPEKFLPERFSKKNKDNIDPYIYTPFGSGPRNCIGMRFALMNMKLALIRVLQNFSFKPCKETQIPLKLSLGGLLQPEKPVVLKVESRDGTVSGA
Chain of Substance-P receptor (P25103 whole entry): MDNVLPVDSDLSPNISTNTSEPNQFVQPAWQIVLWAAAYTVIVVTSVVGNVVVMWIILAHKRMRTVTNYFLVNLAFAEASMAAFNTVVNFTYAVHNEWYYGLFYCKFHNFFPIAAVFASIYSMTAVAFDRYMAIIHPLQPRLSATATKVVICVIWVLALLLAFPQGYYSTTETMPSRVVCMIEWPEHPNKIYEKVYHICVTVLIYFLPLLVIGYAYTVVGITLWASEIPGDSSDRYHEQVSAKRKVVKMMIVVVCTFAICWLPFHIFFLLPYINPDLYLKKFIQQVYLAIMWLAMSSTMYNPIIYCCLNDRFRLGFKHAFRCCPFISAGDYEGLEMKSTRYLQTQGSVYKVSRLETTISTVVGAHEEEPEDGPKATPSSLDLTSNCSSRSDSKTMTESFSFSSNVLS
Chain of Voltage-gated inwardly rectifying potassium channel KCNH2 (Q12809 whole entry): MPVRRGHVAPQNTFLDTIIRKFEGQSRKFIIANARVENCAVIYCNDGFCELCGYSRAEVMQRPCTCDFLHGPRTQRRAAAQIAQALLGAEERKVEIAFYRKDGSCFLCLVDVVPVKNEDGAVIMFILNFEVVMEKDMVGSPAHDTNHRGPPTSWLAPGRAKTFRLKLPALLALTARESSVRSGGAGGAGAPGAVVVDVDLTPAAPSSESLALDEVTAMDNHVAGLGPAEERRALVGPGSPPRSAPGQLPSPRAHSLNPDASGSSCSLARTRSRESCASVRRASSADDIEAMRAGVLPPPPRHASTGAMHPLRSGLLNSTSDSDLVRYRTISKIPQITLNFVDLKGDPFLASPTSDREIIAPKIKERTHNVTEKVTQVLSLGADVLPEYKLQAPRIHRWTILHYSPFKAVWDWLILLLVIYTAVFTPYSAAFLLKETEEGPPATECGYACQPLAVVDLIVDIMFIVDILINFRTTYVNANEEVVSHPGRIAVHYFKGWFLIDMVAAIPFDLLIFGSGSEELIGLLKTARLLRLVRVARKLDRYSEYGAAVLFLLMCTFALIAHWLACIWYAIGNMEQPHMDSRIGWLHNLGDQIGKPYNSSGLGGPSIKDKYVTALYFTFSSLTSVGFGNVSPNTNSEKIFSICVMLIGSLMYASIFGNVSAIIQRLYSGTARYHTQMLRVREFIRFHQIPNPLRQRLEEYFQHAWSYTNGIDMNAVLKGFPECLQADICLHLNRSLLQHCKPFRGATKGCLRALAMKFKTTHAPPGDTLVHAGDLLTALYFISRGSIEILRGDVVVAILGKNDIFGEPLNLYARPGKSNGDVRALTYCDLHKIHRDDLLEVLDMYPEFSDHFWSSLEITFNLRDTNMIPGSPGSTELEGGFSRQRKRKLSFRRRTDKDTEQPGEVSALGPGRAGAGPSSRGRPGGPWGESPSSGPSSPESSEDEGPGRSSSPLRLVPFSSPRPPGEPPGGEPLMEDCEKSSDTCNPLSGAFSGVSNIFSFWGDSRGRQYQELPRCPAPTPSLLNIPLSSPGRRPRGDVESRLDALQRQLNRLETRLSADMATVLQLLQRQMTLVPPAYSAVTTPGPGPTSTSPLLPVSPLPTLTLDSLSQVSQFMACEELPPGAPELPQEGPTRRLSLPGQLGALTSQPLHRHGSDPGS

Compound | IC50 [1] [µM] | IC50 [2] [µM] | IC50 [3] [µM] | logD [4] | Ki [5] [µM] | IC50 [7] [µM] | solubility thermodynamic [8] [µM] | IC50 [9] [µM] | IC50 [11] [µM] | Ki [14] [µM] | inhibition [20] [%] | other results
N#CC(c1ccccn1)c1ccnc(N2CCN(C(=O)c3ccc(F)cc3)CC2)n1 (stereo unspecified) | < 5 | < 5 | < 5 | 3.4 | 0.076 | < 5 | 1.3 (≈ 0.523 µg/mL) | 0.109 |  |  |  | half-life [6]: 0.217 h
Cc1nc(-c2nnc3n2CCN(C(=O)c2ccc(-c4cccs4)cc2)C3)cs1 | 15 | 19 | > 100 | 2.9 | 0.0794 | 19 | 172 (≈ 70.1 µg/mL) | 0.0794 | 30 |  |  | IC50 [10]: 27 µM
CSCC[C@H](NC(=O)[C@H](CC(C)C)NC(=O)CNC(=O)[C@@H](NC(=O)[C@H](Cc1ccccc1)NC(=O)[C@H](Cc1ccccc1)NC(=O)[C@H](CC(=O)O)NC(=O)[C@H](Cc1c[nH]cn1)NC(=O)[C@H](CCSC)NC(=O)[C@@H](N)CC(=O)O)C(C)C)C(N)=O [NEUROKININ B] |  |  |  |  |  |  |  |  |  |  |  | Ki [12]: 0.0158 µM
Cc1noc(-c2nnc3n2CCN(C(=O)c2ccc(-c4cccs4)cc2)[C@@H]3C)n1 | 54 | 32 | > 100 | 2.2 | 0.0251 | 40 | 185 (≈ 75.2 µg/mL) | 0.0251 | 55 | 0.0251 | 23 | fAUC [13]: 23.3 µM·min; clearance [15]: 11.3 mL/min/kg; Kp uu at 1 h [16]: 0.4; half-life [17]: 1.03 h; Vd [18]: 1 L/kg; Tmax [19]: 0.583 h; Ki [21]: 0.116 µM; Papp B→A [22]: 60.4 ×10⁻⁶ cm/s; fCmax [23]: 272 nM; fraction unbound at 4 h, 5 µM [24]: 0.108; bioavailability [25]: 66%; fAUC [26]: 46.3 µM·min; fraction unbound at 4 h, 5 µM [27]: 0.084; Kp uu at 10 min [28]: 0.6; Papp A→B [29]: 57.4 ×10⁻⁶ cm/s
CC(C)c1nc(-c2nnc3n2CCN(C(=O)c2ccc(-c4cccs4)cc2)[C@@H]3C)co1 | 22 | 81 | 65 | 3.3 | 0.00316 | 14 | 119 (≈ 51.6 µg/mL) | 0.00398 | 43 | 0.00631 | 41 | fAUC [13]: 9.3 µM·min; clearance [15]: 8.2 mL/min/kg; Ki [30]: 10 µM; Kp uu at 1 h [16]: 0.2; half-life [17]: 3.5 h; Vd [18]: 2.6 L/kg; Tmax [19]: 1.13 h; Ki [21]: 0.032 µM; Ki [31]: 7.94 µM; Papp B→A [22]: 43.8 ×10⁻⁶ cm/s; fCmax [23]: 58.7 nM; fraction unbound at 4 h, 5 µM [24]: 0.036; bioavailability [25]: 49%; fAUC [26]: 13.6 µM·min; fraction unbound at 4 h, 5 µM [27]: 0.016; Kp uu at 10 min [28]: 0.2; Papp A→B [29]: 46.4 ×10⁻⁶ cm/s
Cc1nsc(-c2nnc3n2CCN(C(=O)c2ccc(-c4cccs4)cc2)[C@@H]3C)n1 |  |  |  |  |  |  |  |  |  | 0.00631 | 42 | Ki [30]: 12.6 µM; inhibition [32]: 35%; Ki [31]: 12.6 µM; inhibition [33]: 24%
CSCC[C@H](NC(=O)[C@H](CC(C)C)NC(=O)CNC(=O)[C@H](Cc1ccccc1)N(C)C(=O)[C@H](Cc1ccccc1)NC(=O)[C@H](CC(=O)O)NC(=O)CCC(=O)O)C(N)=O [SENKTIDE] |  |  |  |  |  |  |  |  |  |  |  | Ki [12]: > 10 µM
